# Experimental data: patent US20250212902A1, “METHOD AND COMPOSITION FOR IMPROVEMENT OF AGRICULTURAL PRODUCE” (UPL CORPORATION LIMITED, priority 2022, published 2025)
# Tests used:
# [1] = system: powdery mildew (Uncinula necator); experiment: Control of powdery mildew in grape; format: in vivo; conditions: Example 7 Trial 2, 10 applications, 3 day interval
# Protocol: (§1) 10 applications […] were performed with an interval of 3 days with the 1st application being at inflorescence stage (BBCH 53). Severity of disease was evaluated in at least 20 leaves/plot, prior evaluation was performed before the first application, at 3 days after each application and at 7 and 10 days after the last application. Phytotoxicity (0 to 100%) was evaluated before each spray and at 3 days after each application. Post-harvest bunch weight was evaluated at 19 days after harvest. Control of powdery mildew was recorded as % control. Yield was evaluated as Kg/ha. Post-harvest bunch weight was recorded as g/bunch. […] 10 applications […] were performed with an interval of 3 days with the 1st application being at inflorescence stage (BBCH 53). Severity of disease was evaluated in at least 20 leaves/plot, prior evaluation was performed before the first application, at 3 days after each application and at 7 and 10 days after the last application. Phytotoxicity (0 to 100%) was evaluated before each spray and at 3 days after each application. Post-harvest bunch weight was evaluated at 19 days after harvest. Control of powdery mildew was recorded as % control. Post-harvest bunch weight was recorded as g/bunch.
# grape = experiment: Post-harvest bunch weight in grape (Example 7); format: in vivo; conditions: 19 days after harvest, Example 7 Trial 2
# Protocol: as §1
structure (smiles),measurement,setting,value
"O=C([O-])O.[K+] [Potassium bicarbonate, potassium bicarbonate]",% Control of Uncinula necator,[1],67.7%
same,Post-harvest bunch weight (g/bunch),grape,420.3 g/bunch
